According to patent US20250368666A1, “INDAZOLE COMPOUNDS” (TYRA BIOSCIENCES, INC., priority 2022, published 2025):

What was measured:
[1] = system: HuH7 cell line (FGF19 amplification); test: Cancer cell line cell viability assay (Cell Titer-Glo), 120 hr; format: cell-based; settings: Homo sapiens, Huh-7
Outline: (§1)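 Following overnight attachment, each line receives compound in triplicate across nine 4-fold dilutions starting at 3 μM, with DMSO backfill for equal solvent. Luminescence after Cell Titer-Glo 2.0 addition gives percent viability versus DMSO control, fitted by 4-parameter logistic for IC50.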

[2] = system: RT112/84 cell line (FGFR3-fusion); test: Cancer cell line cell viability assay (Cell Titer-Glo), 72 hr; format: cell-based; settings: Homo sapiens, RT112/84, RT112/84 cell line (FGFR3-fusion)
Outline: as §1

[3] = system: KATO-III cell line (FGFR2 amplification); test: as above; format: cell-based; settings: Homo sapiens, KATO III
Outline: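 Intracellular ATP was measured by Cell Titer-Glo 2.0 luminescence after cells were incubated with compound dilutions (top 3 μM, 4-fold, 9 doses). Values were expressed relative to DMSO-treated cells and IC50 was calculated from a variable-slope dose-response curve.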

[4] = system: KG-1 cell line (FGFR 1-fusion); test: as above; format: cell-based; settings: Homo sapiens, KG-1, KG-1 cell line (FGFR1-fusion)
Outline: as §1

[5] = target: T1, FGFR3 (Homo sapiens, UniProt P22607); test: Kinase binding assay (kinase-tagged T7 phage, affinity beads, qPCR), Kd; settings: read-out: FGFR3 (Kd nM)
T1 construct: made in house; host or cells: E. coli (BL21-derived), T7 phage
T1 sequence (P22607 23-806): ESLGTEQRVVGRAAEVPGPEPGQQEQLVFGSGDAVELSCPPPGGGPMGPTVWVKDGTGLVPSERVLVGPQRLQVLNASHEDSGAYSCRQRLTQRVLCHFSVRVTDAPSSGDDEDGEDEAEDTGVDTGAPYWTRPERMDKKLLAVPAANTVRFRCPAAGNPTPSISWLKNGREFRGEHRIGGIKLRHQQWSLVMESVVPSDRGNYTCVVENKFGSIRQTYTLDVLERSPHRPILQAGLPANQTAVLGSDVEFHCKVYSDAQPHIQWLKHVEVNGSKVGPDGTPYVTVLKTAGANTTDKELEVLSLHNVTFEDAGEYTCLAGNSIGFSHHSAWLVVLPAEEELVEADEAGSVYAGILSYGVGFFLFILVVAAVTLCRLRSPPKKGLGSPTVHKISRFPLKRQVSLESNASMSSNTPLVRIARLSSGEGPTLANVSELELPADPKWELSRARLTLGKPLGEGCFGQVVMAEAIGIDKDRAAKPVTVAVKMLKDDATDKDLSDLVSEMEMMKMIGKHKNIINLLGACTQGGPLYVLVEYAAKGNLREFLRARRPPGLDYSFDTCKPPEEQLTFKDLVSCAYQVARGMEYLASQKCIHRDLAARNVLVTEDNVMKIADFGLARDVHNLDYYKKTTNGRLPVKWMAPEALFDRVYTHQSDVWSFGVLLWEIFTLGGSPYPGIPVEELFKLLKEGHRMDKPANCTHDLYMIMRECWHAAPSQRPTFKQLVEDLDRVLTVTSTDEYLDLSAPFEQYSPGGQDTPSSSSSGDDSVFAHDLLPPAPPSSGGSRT
Outline: (§2)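 Readout was qPCR of kinase eluted from ligand-coated affinity beads after competition with test compound. Kinases were expressed as T7 phage fusions in E. coli. Binding constants were derived by non-linear least-squares Hill fitting, Hill slope −1.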

[6] = target: T2, FGFR4 (Homo sapiens, UniProt P22455); test: as above; settings: read-out: FGFR4 (Kd nM)
T2 construct: made in house; host or cells: E. coli (BL21-derived), T7 phage
T2 sequence (P22455 22-802): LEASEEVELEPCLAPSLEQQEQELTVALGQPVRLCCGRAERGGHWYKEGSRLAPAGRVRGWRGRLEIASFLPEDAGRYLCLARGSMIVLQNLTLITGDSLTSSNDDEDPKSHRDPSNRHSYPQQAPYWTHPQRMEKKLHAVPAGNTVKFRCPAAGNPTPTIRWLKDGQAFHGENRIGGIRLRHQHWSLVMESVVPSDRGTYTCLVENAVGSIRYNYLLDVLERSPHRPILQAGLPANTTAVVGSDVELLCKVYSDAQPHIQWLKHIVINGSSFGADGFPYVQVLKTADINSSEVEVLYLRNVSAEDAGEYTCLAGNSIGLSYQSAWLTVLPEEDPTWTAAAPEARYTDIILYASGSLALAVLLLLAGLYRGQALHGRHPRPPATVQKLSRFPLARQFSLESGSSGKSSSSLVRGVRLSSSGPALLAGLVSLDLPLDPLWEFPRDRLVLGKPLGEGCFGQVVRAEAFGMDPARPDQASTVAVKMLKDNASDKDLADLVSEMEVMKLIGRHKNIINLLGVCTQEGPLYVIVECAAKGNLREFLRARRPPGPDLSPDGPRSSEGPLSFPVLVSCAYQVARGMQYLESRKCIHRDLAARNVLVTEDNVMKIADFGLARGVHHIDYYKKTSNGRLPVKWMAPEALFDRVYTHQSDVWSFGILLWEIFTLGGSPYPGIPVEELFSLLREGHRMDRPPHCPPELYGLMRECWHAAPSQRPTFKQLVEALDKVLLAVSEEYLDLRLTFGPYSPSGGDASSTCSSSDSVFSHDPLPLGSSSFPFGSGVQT
Outline: as §2

[7] = target: T3, FGFR1 (Homo sapiens, UniProt P11362); test: as above; settings: read-out: FGFR1 (Kd nM)
T3 construct: made in house; host or cells: E. coli (BL21-derived), T7 phage
T3 sequence (P11362 22-822): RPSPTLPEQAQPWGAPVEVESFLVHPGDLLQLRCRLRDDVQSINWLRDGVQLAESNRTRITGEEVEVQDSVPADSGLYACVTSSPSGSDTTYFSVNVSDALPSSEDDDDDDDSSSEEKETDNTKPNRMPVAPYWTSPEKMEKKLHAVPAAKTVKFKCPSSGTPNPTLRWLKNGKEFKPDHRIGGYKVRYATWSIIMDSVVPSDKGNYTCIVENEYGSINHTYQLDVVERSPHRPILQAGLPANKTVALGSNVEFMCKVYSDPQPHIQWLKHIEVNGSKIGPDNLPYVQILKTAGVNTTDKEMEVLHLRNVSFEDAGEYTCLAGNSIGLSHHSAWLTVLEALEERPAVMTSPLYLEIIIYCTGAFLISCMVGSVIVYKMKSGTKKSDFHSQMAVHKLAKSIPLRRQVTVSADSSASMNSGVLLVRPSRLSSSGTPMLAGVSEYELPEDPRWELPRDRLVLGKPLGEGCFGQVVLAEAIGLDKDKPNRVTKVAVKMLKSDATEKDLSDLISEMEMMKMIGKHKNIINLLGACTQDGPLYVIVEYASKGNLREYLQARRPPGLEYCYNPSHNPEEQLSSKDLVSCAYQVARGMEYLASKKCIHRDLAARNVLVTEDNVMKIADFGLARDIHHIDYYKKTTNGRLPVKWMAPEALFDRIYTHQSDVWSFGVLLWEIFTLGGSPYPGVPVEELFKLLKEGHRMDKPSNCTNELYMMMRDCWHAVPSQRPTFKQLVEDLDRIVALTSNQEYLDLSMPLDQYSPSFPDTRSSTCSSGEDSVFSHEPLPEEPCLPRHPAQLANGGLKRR
Outline: as §2

[8] = target: T4, FGFR2 (Homo sapiens, UniProt P21802); test: as above; settings: read-out: FGFR2 (Kd nM)
T4 construct: made in house; host or cells: E. coli (BL21-derived), T7 phage
T4 sequence (P21802 22-821): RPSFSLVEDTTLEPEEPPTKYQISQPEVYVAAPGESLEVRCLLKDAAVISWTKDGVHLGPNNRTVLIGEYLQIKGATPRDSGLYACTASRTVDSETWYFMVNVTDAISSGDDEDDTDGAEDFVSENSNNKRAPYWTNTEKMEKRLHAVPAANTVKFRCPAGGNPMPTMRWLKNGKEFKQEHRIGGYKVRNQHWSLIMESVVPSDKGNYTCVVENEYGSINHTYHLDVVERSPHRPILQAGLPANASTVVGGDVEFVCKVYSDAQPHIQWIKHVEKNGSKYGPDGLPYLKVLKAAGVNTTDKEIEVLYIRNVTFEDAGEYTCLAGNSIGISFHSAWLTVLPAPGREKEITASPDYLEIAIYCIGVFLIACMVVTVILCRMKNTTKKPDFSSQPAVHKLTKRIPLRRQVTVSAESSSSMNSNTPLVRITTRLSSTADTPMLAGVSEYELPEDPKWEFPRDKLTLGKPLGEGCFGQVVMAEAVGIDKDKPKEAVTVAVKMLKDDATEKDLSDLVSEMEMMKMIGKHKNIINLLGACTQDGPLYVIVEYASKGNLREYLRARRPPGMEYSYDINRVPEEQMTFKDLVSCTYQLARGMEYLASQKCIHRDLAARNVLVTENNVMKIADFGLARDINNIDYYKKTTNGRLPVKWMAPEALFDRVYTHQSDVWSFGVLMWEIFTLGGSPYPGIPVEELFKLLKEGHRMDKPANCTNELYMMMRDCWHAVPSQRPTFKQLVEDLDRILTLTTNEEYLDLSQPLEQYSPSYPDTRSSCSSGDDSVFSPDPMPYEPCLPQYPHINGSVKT
Outline: as §2

Row | IC50 [1] [nM] | IC50 [2] [nM] | IC50 [3] [nM] | IC50 [4] [nM] | Kd [5] [nM] | Kd [6] [nM] | Kd [7] [nM] | Kd [8] [nM] | Structure (SMILES)
1 | 50 to 200 | 50 to 200 | 200 to 1000 | 200 to 1000 | – | – | – | – | C[C@@H](Oc1cc2c(-c3cnc(N4CC(C)(NCCO)C4)c(C#N)c3)n[nH]c2cc1F)c1c(Cl)cncc1Cl [Example 129, (R)-5-(5-(1-(3,5-dichloropyridin-4-yl)ethoxy)-6-fluoro-1H-indazol-3-yl)-2-(3-((2-hydroxyethyl)amino)-3-methylazetidin-1-yl)nicotinonitrile]
2 | 0.1 to 50 | 0.1 to 50 | 50 to 200 | 200 to 1000 | 1 to 50 | 1 to 50 | 1 to 50 | 1 to 50 | COc1cc2[nH]nc(-c3cnc(N4CC(CC#N)(NC(C)C)C4)c(C#N)c3)c2cc1O[C@H](C)c1c(Cl)cncc1Cl [Example 152, (R)-2-(3-(cyanomethyl)-3-(isopropylamino)azetidin-1-yl)-5-(5-(1-(3,5-dichloropyridin-4-yl)ethoxy)-6-methoxy-1H-indazol-3-yl)nicotinonitrile]
3 | 0.1 to 50 | 0.1 to 50 | 0.1 to 50 | 50 to 200 | 1 to 50 | 1 to 50 | 1 to 50 | 1 to 50 | CNC1(CC#N)CN(c2ncc(-c3n[nH]c4cc(OC)c(O[C@H](C)c5c(Cl)cncc5Cl)cc34)cc2C#N)C1 [Example 153, (R)-2-(3-(cyanomethyl)-3-(methylamino)azetidin-1-yl)-5-(5-(1-(3,5-dichloropyridin-4-yl)ethoxy)-6-methoxy-1H-indazol-3-yl)nicotinonitrile]
4 | 0.1 to 50 | 0.1 to 50 | 50 to 200 | 50 to 200 | – | 1 to 50 | 1 to 50 | 1 to 50 | COc1cc2[nH]nc(-c3cnc(N4CC(C)(NC(=O)CN(C)C)C4)c(C#N)c3)c2cc1O[C@H](C)c1c(Cl)cncc1Cl [Example 340, (R)-N-(1-(3-cyano-5-(5-(1-(3,5-dichloropyridin-4-yl)ethoxy)-6-methoxy-1H-indazol-3-yl)pyridin-2-yl)-3-methylazetidin-3-yl)-2-(dimethylamino)-acetamide]
5 | 200 to 1000 | 50 to 200 | 200 to 1000 | > 1000 | 1 to 50 | 1 to 50 | 50 to 300 | 50 to 300 | COc1cc2[nH]nc(-c3cnc(N4CC(C)(N(C)CC(C)C)C4)c(C#N)c3)c2cc1O[C@H](C)c1c(Cl)cncc1Cl [Example 343, (R)-5-(5-(1-(3,5-dichloropyridin-4-yl)ethoxy)-6-methoxy-1H-indazol-3-yl)-2-(3-(isobutyl(meth-yl)amino)-3-methylazetidin-1-yl)nicotinonitrile]
6 | 0.1 to 50 | 0.1 to 50 | 50 to 200 | 200 to 1000 | 1 to 50 | 1 to 50 | 1 to 50 | 1 to 50 | COc1cc2[nH]nc(-c3cnc(N4CC(C)(N(C)CC5CC5)C4)c(C#N)c3)c2cc1O[C@H](C)c1c(Cl)cncc1Cl [Example 344, (R)-2-(3-((cyclopropyl-methyl) (methyl)amino)-3-methylazetidin-1-yl)-5-(5-(1-(3,5-dichloropyridin-4-yl)ethoxy)-6-methoxy-1H-indazol-3-yl)nicotinonitrile]
7 | 0.1 to 50 | 0.1 to 50 | 0.1 to 50 | 50 to 200 | 1 to 50 | 1 to 50 | 1 to 50 | 1 to 50 | COc1cc2[nH]nc(-c3cnc(N4CC(N)(CC#N)C4)c(C#N)c3)c2cc1O[C@H](C)c1c(Cl)cncc1Cl [Example 345, 2-[3-amino-3-(cyanomethyl)azeti-din-1-yl]-5-[5-[(1R)-1-(3,5-dichloro-4-pyridyl)ethoxy]-6-methoxy-1H-indazol-3-yl]pyridine-3-carbonitrile]
8 | 0.1 to 50 | 0.1 to 50 | 0.1 to 50 | 50 to 200 | 1 to 50 | 1 to 50 | 1 to 50 | 1 to 50 | COc1cc2[nH]nc(-c3cnc(N4CC(CC#N)(NCC5CC5)C4)c(C#N)c3)c2cc1O[C@H](C)c1c(Cl)cncc1Cl [Example 346, (R)-2-(3-(cyanomethyl)-3-((cyclo-propylmethyl)-amino)azetidin-1-yl)-5-(5-(1-(3,5-dichloropyridin-4-yl)ethoxy)-6-methoxy-1H-indazol-3-yl)nicotinonitrile]
9 | 0.1 to 50 | 0.1 to 50 | 0.1 to 50 | 0.1 to 50 | 1 to 50 | 1 to 50 | 1 to 50 | 1 to 50 | CCC1(NC)CN(c2ncc(-c3n[nH]c4cc(OC)c(O[C@H](C)c5c(Cl)cncc5Cl)cc34)cc2C#N)C1 [Example 351, (R)-5-(5-(1-(3,5-Dichloropyridin-4-yl)ethoxy)-6-methoxy-1H-indazol-3-yl)-2-(3-ethyl-3-(methyl-amino)azeti-din-1-yl)nicotinonitrile diHCl]
10 | 0.1 to 50 | 0.1 to 50 | 0.1 to 50 | 0.1 to 50 | 1 to 50 | 1 to 50 | 1 to 50 | 1 to 50 | COc1cc2[nH]nc(-c3cnc(N4CC(CC#N)(N(C)C)C4)c(C#N)c3)c2cc1O[C@H](C)c1c(Cl)cncc1Cl [Example 352, (R)-2-(3-(cyanomethyl)-3-(dimethylamino)-azetidin-1-yl)-5-(5-(1-(3,5-dichloropyridin-4-yl)ethoxy)-6-methoxy-1H-indazol-3-yl)nicotinonitrile]
11 | 0.1 to 50 | 0.1 to 50 | 50 to 200 | 50 to 200 | 1 to 50 | 1 to 50 | 1 to 50 | 1 to 50 | COc1cc2[nH]nc(-c3cnc(N4CC(N)(C(C)C)C4)c(C#N)c3)c2cc1O[C@H](C)c1c(Cl)cncc1Cl [Example 353, (R)-2-(3-amino-3-isopropylazetidin-1-yl)-5-(5-(1-(3,5-dichloropyridin-4-yl)ethoxy)-6-methoxy-1H-indazol-3-yl)nicotinonitrile]
12 | 0.1 to 50 | 0.1 to 50 | 0.1 to 50 | 50 to 200 | 1 to 50 | 1 to 50 | 1 to 50 | 1 to 50 | COc1cc2[nH]nc(-c3cnc(N4CC(CC#N)(N5CCCC5)C4)c(C#N)c3)c2cc1O[C@H](C)c1c(Cl)cncc1Cl [Example 354, (R)-2-(3-(cyanomethyl)-3-(pyrrolidin-1-yl)azetidin-1-yl)-5-(5-(1-(3,5-dichloropyridin-4-yl)ethoxy)-6-methoxy-1H-indazol-3-yl)nicotinonitrile]
13 | 0.1 to 50 | 0.1 to 50 | 200 to 1000 | 50 to 200 | 1 to 50 | 1 to 50 | 1 to 50 | 1 to 50 | COc1cc2[nH]nc(-c3cnc(N4CC(N)(C5CCC5)C4)c(C#N)c3)c2cc1O[C@H](C)c1c(Cl)cncc1Cl [Example 356, (R)-2-(3-amino-3-cyclobutylazetidin-1-yl)-5-(5-(1-(3,5-dichloropyridin-4-yl)ethoxy)-6-methoxy-1H-indazol-3-yl)nicotinonitrile]
14 | 0.1 to 50 | 50 to 200 | 50 to 200 | 50 to 200 | 1 to 50 | 1 to 50 | 1 to 50 | 1 to 50 | COc1cc2[nH]nc(-c3cnc(N4CC(N)(CC(C)C)C4)c(C#N)c3)c2cc1O[C@H](C)c1c(Cl)cncc1Cl [Example 357, (R)-2-(3-amino-3-isobutylazetidin-1-yl)-5-(5-(1-(3,5-dichloropyridin-4-yl)ethoxy)-6-methoxy-1H-indazol-3-yl)nicotinonitrile]
15 | 0.1 to 50 | 50 to 200 | 50 to 200 | 50 to 200 | 1 to 50 | 1 to 50 | 1 to 50 | 1 to 50 | COc1cc2[nH]nc(-c3cnc(N4CC(N)(CC5CC5)C4)c(C#N)c3)c2cc1O[C@H](C)c1c(Cl)cncc1Cl [Example 359]
16 | 0.1 to 50 | 0.1 to 50 | 50 to 200 | 50 to 200 | 1 to 50 | 1 to 50 | 1 to 50 | 1 to 50 | CCCC1(N)CN(c2ncc(-c3n[nH]c4cc(OC)c(O[C@H](C)c5c(Cl)cncc5Cl)cc34)cc2C#N)C1 [Example 360, (R)-2-(3-amino-3-propylazetidin-1-yl)-5-(5-(1-(3,5-dichloropyridin-4-yl)ethoxy)-6-methoxy-1H-indazol-3-yl)nicotinonitrile]
